Experimental findings from patent publication US11746100B2 (GLOBAL BLOOD THERAPEUTICS, INC., priority 2020, dated 2023) are described below.

SMILES strings stand for the structures.

Broadly, the pEC50 is the negative decadic logarithm of the EC50, by convention in mol/L. High values mean a low EC50, low ones a high EC50.

The target in this experiment is T1, human ferroportin (Homo sapiens, UniProt Q9NP59).
T1 construct: luciferase reporter (read with the Nano-Glo Luciferase Assay System); expressed in transfected cells; host or cells: CHO cells, stably transfected, expression induced with doxycycline
T1 sequence (Q9NP59 1-571): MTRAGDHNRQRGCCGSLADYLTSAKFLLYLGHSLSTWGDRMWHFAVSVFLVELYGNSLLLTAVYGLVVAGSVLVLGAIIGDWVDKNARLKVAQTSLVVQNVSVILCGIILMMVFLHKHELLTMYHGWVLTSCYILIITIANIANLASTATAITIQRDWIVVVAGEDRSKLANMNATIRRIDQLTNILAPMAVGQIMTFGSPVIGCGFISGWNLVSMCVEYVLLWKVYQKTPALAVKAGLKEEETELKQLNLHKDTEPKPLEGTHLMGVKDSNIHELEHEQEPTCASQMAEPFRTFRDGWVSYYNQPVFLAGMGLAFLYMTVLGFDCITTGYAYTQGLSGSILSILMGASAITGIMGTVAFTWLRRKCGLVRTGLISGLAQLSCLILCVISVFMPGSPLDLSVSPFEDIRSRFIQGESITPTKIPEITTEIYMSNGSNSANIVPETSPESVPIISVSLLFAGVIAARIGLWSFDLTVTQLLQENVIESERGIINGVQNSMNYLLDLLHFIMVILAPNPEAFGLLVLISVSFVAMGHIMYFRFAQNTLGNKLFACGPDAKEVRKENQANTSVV
As to the kind of experiment: Biological in-vitro ferroportin internalization assay (luciferase reporter). The experiment is classed as cell-based. To be noted: average pEC50; stably-transfected CHO cell line expressing human ferroportin tagged to a luciferase reporter; 6 h incubation with test compound. The procedure: The protocol for this assay is generally as described in WO2018/128828, incorporated herein by reference in its entirety. Functional internalization of ferroportin protein was measured using a stably-transfected CHO cell line expressing the human ferroportin tagged to a luciferase reporter. Cells were plated for 24 h in the presence of ferric ammonium citrate (FAC). Ferroportin protein expression was induced with doxycycline for 24 h. The next day, the compounds were added. Test compounds were dissolved in DMSO. Cells were incubated with the test compounds for 6 h, and subsequently luciferase activity was measured using the Nano-Glo Luciferase Assay System and Glomax (Promega, Madison, Wis.). The average pEC50 was determined for the test compounds.
The compound `c1ccc(-c2nc3c(c(N4CCCO[C@@H]5CCC[C@@H]54)n2)CCC3)nc1` [Compound 48, 2-{4-[(5aS,8aR)-octahydro-2H-cyclopenta[b][1,4]oxazepin-5-yl]-5H,6H,7H-cyclopenta[d]pyrimidin-2-yl}pyridine] had a pEC50 of 6.8. With `CC(C)NC(=O)CN(C)c1nc(-c2cc(OCCN(C)C)ccn2)nc2c1C(C)(C)CC2` [Compound 435, 2-[(2-{4-[2-(dimethylamino)ethoxy]pyridin-2-yl}-5,5-dimethyl-5H,6H,7H-cyclopenta[d]pyrimidin-4-yl)(methyl)amino]-N-(propan-2-yl)acetamide] the figure was 7.8; with `CN(CC(=O)N1CCCCC1)c1nc(-c2cc(OCCO)ccn2)nc2c1C(C)(C)CC2` [Compound 362, 2-({2-[4-(2-hydroxyethoxy)pyridin-2-yl]-5,5-dimethyl-5H,6H,7H-cyclopenta[d]pyrimidin-4-yl}(methyl)amino)-1-(piperidin-1-yl)ethan-1-one], 8. As to `CN(CC(=O)Nc1cnn(C)c1)c1nc(-c2cc(OCC3CC3)ccn2)nc2c1CCC2` [Compound 215, 2-({2-[4-(cyclopropylmethoxy)pyridin-2-yl]-5H,6H,7H-cyclopenta[d]pyrimidin-4-yl}(methyl)amino)-N-(1-methyl-1H-pyrazol-4-yl)acetamide], the pEC50 worked out at 7.5. In turn, `CN(CC(=O)Nc1cncc(OC(F)(F)F)c1)c1nc(-c2cc3ccccc3cn2)nc2c1CCC2` [Compound 283, 2-{[2-(isoquinolin-3-yl)-5H,6H,7H-cyclopenta[d]pyrimidin-4-yl](methyl)amino}-N-[5-(trifluoromethoxy)pyridin-3-yl]acetamide] showed a pEC50 of 6.6. Compound `CN(CC(=O)NC(C)(C)C)c1nc(-c2cc(CO)ccn2)nc2c1CCC2` [Compound 41, N-tert-butyl-2-({2-[4-(hydroxymethyl)pyridin-2-yl]-5H,6H,7H-cyclopenta[d]pyrimidin-4-yl}(methyl)amino)acetamide] displayed a pEC50 of 7.3. Consider `CN(CC(=O)NC(C)(C)C)c1nc(-c2cn3ccccc3n2)nc2c1CCC2` [Compound 166, N-tert-butyl-2-[(2-{imidazo[1,2-a]pyridin-2-yl}-5H,6H,7H-cyclopenta[d]pyrimidin-4-yl)(methyl)amino]acetamide], for which the pEC50 came to 6.7. `COc1ccc(NC(=O)CN(C)c2nc(-c3cc(OC4COC4)ccn3)nc3c2CCC3)cn1` [Compound 253, N-(6-methoxypyridin-3-yl)-2-[methyl({2-[4-(oxetan-3-yloxy)pyridin-2-yl]-5H,6H,7H-cyclopenta[d]pyrimidin-4-yl})amino]acetamide] returned a pEC50 of 7.6.

Compound `CN(CC(=O)N1CCCCC1)c1nc(-c2cc(OC3COC3)ccn2)nc2c1CCC2` [Compound 323, 2-[methyl({2-[4-(oxetan-3-yloxy)pyridin-2-yl]-5H,6H,7H-cyclopenta[d]pyrimidin-4-yl})amino]-1-(piperidin-1-yl)ethan-1-one] gave a pEC50 of 7.5. With `COc1ccnc(-c2nc3c(c(N(C)CC(=O)N[C@@H]4CCCC[C@@H]4O)n2)CCC3)c1` (stereo in doubt) [Compound 168, N-[(1R,2S)-2-hydroxycyclohexyl]-2-{[2-(4-methoxypyridin-2-yl)-5H,6H,7H-cyclopenta[d]pyrimidin-4-yl](methyl)amino}acetamide] the figure was 7.3. Compound `COc1ccnc(-c2nc3c(c(N(C)CC(=O)NC4CCCCC4)n2)CCC3)c1` [Compound 137, N-cyclohexyl-2-{[2-(4-methoxypyridin-2-yl)-5H,6H,7H-cyclopenta[d]pyrimidin-4-yl](methyl)amino}acetamide] came in with a pEC50 of 7.8. With `COc1ccnc(-c2nc3c(c(N(C)CC(=O)N4CC[C@@H](O)C4)n2)CCC3)c1` [Compound 471, 1-[(3R)-3-hydroxypyrrolidin-1-yl]-2-{[2-(4-methoxypyridin-2-yl)-5H,6H,7H-cyclopenta[d]pyrimidin-4-yl](methyl)amino}ethan-1-one] the figure was 7.4.
